According to paper PMC6162447, “Engineering Gain-of-Function Analogues of the Spider Venom Peptide HNTX-I, A Potent Blocker of the hNaV1.7 Sodium Channel” (Toxins, 2018):
Bridge positions count the residues as written; N and C are the ends. Peptide text beside a SMILES is read from it.

Target: T1, hNaV1.7 (Homo sapiens, UniProt Q15858)
T1 construct: expressed in transfected cells; host or cells: HEK 293
Test: Whole-cell patch clamp on hNaV1.7 expressed in HEK 293 cells
Format: cell-based
Conditions: for IC50: HEK 293 cells transfected with hNaV1.7 plus human β1 and β2 subunits, room temperature (20–25 °C), 50 ms depolarization to −10 mV from holding −100 mV, mean ± SEM; for Activity on NaV1.7 at a concentration of 10 µM: 10 µM peptide, HEK 293 cells (Figure 2A–C)
Procedure: We maintained human embryonic kidney (HEK) 293 cells at 37 °C in a humidified 5% CO2 incubator in Dulbecco’s Modified Eagle’s Medium (DMEM) supplemented with 10% fetal bovine serum (FBS), 2 mM L-glutamine, 100 units/mL penicillin and 100 µg/mL streptomycin. cDNA genes encoding rat Nav1.2 and mouse Nav1.6 were subcloned into the vectors pcDNA3.1, respectively. We subcloned the gene that encodes hNaV1.7 into the vector pcDNA3.1-mod. We transfected the hNaV1.7 channel (3 μg) together with plasmids β1- (1 μg) and β2-eGFP ([…]), which encode the human β1 and β2 subunits, and Nav1.2 and Nav1.6 together with eGFP in HEK 293 cells using Lipofectamine 2000 (Invitrogen, Carlsbad, CA, USA) per the manufacturer’s instructions.
We performed whole-cell recordings using an EPC 10 patch clamp platform (HEKA, Elektronik, Lambrecht, Germany) at room temperature (20–25 °C). We made suction pipettes with access resistance of 2.0–3.0 MΩ from borosilicate glass capillary tubes (VWR micropipettes; VWR Co., West Chester, PA, USA) using a 2-step vertical microelectrode puller (PC-10; Narishige Co., Ltd., Tokyo, Japan) and compensated for voltage errors using 80% serial-resistance compensation. The standard pipette solution contained (in mM): 140 CsCl, 10 NaCl, 1 ethylene glycol-bis (β-aminoethyl ether)-N,N,N′,N′-tetraacetic acid (EGTA), and 10 HEPES (pH 7.4). The bath solution contained (in mM): 140 NaCl, 2 CaCl2, 1 MgCl2, 5 KCl, 20 4-(2-hydroxyethyl)-1-piperazineethanesulfonic acid (HEPES) and 10 glucose (pH 7.4). We purchased all chemicals from Sigma-Aldrich (St. Louis, MO, USA) and dissolved them in water. Data were acquired using PATCHMASTER software version 2x73 (HEKA Elektronik Dr. Schulze GmbH, Lambrecht, Germany). We filtered macroscopic sodium currents at 5 kHz and sampled them at 20 kHz. We acquired voltage clamp recordings 5 min after establishing a whole-cell configuration to allow adequate equilibration between the micropipette solution and the cell interior. We elicited channel current by 50 milliseconds of depolarization potential to −10 mV from the holding voltage of −100 mV.
We analyzed the data using Igor Pro software version 6.10A (WaveMetrics, Lake Oswego, OR, USA), Sigmaplot software version 10 (Sigma, St. Louis, MO, USA), OriginPro software version 8 (OriginLab Corp., Northampton, MA, USA) and Prism software version 5 (GraphPad Software, San Diego, CA, USA). Concentration–response curves were fitted using the following Hill logistic equation:y = fmax − (fmax − fmin)/(1 + (x/IC50)^n)(1) where fmax and fmin respectively represent the channel’s maximum and minimum responses to toxins, fmin was set to 0, x represents toxin concentration and n is an empirical Hill coefficient. All quantitative results are presented as mean ± standard error of the mean (SEM).

T1 sequence (O60939 30-215): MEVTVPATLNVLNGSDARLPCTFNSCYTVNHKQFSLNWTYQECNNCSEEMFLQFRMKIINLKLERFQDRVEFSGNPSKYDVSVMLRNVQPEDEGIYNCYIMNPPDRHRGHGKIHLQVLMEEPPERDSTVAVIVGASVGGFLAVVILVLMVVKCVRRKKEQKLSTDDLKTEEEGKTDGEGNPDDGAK
T1 sequence (Q07699 19-218, further chain): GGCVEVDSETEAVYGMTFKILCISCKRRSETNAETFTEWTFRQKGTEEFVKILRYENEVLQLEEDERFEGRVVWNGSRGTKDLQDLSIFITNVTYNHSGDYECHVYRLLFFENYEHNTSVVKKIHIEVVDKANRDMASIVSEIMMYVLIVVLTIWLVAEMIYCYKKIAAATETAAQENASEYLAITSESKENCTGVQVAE
T1 sequence (Q15858 other isoform, or with tags, fused parts or gaps): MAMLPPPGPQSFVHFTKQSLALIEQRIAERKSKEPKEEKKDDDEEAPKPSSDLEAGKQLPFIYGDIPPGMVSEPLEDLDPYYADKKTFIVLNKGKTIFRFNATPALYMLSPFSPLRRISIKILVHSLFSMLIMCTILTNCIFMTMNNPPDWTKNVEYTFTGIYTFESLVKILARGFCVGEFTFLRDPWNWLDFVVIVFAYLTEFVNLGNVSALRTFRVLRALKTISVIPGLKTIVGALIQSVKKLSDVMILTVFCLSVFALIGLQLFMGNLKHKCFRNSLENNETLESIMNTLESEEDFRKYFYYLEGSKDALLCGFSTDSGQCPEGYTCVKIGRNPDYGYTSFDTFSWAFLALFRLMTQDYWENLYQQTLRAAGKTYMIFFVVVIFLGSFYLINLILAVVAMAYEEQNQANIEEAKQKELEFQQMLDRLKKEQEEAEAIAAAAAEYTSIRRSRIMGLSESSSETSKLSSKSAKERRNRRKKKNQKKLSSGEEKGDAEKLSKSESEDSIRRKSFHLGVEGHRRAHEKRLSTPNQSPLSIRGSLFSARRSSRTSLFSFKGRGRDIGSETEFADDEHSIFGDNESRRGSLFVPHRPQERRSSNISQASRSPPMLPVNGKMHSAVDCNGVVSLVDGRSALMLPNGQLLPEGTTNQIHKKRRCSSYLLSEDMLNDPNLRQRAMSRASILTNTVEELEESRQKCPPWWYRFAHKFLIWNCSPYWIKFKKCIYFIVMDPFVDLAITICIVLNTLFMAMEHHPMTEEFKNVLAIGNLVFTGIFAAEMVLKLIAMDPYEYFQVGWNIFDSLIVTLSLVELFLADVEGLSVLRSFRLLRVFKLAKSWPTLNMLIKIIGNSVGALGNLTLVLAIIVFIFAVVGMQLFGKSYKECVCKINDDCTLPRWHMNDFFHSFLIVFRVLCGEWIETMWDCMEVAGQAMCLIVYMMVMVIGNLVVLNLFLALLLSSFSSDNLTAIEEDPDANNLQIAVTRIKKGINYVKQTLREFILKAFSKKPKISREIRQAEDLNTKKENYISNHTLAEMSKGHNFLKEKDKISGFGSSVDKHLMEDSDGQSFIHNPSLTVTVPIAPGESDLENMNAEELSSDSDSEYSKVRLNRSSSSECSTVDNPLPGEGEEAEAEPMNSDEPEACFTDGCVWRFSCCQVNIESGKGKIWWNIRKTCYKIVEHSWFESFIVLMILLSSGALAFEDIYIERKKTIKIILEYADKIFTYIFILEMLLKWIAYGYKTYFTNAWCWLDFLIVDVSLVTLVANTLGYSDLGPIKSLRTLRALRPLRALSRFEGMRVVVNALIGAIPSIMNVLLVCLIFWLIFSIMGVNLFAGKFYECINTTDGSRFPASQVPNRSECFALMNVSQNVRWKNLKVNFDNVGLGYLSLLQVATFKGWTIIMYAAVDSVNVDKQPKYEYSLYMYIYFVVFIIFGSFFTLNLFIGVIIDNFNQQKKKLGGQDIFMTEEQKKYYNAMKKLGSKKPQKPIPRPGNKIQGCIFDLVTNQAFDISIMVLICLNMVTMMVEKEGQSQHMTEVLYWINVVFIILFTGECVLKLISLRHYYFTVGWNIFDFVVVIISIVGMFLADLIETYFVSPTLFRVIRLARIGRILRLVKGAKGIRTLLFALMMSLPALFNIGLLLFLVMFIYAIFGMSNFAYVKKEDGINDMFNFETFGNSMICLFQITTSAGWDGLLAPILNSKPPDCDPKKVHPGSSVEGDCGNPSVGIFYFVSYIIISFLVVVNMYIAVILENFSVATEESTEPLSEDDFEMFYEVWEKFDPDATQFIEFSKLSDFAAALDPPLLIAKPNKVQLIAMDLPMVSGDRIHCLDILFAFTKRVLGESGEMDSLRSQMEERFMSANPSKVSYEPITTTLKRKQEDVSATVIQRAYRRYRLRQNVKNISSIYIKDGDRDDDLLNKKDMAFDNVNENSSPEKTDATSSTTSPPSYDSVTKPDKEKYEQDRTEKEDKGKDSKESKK

Row | SMILES | IC50 (n ≥ 3, SEM) | Activity on NaV1.7 at a concentration of 10 µM | IC50 (n ≥ 3)
1 | CC(C)C[C@H](NC(=O)[C@H](CC(C)C)NC(=O)[C@@H](NC(=O)[C@H](CCCCN)NC(=O)[C@@H]1CSSC[C@@H]2NC(=O)[C@H](CCC(=O)O)NC(=O)[C@H](CC(N)=O)NC(=O)[C@H](CCCCN)NC(=O)CNC(=O)[C@@H]3CCCN3C(=O)[C@H](C(C)C)NC(=O)[C@@H]3CSSC[C@H](NC(=O)[C@H](C)NC(=O)[C@H](Cc4ccc(O)cc4)NC(=O)CNC(=O)[C@H](CO)NC(=O)[C@H](CSSC[C@H](NC(=O)CN)C(=O)N[C@@H](CCCCN)C(=O)NCC(=O)N[C@@H](Cc4ccccc4)C(=O)NCC(=O)N[C@@H](CCCCN)C(=O)N[C@@H](CO)C(=O)N3)NC2=O)C(=O)N[C@@H](CO)C(=O)N[C@@H](CO)C(=O)N[C@@H](CCCNC(=N)N)C(=O)N[C@@H](Cc2c[nH]cn2)C(=O)N[C@@H](CCCCN)C(=O)N[C@@H](Cc2c[nH]c3ccccc23)C(=O)N1)C(C)C)C(=O)O [E1G–N23S–D26H] (H-GCKGFGKSCVPGKNECCSGYACSSRHKWCKVLL-OH; disulfide 2-17, 9-22, 16-29) | 179 ± 24 nM |  | 
2 | CC(C)C[C@H](NC(=O)[C@H](CC(C)C)NC(=O)[C@@H](NC(=O)[C@H](CCCCN)NC(=O)[C@@H]1CSSC[C@@H]2NC(=O)[C@H](CCC(=O)O)NC(=O)[C@H](CC(N)=O)NC(=O)[C@H](CCCCN)NC(=O)CNC(=O)[C@@H]3CCCN3C(=O)[C@H](C(C)C)NC(=O)[C@@H]3CSSC[C@H](NC(=O)[C@H](C)NC(=O)[C@H](Cc4ccc(O)cc4)NC(=O)CNC(=O)[C@H](CO)NC(=O)[C@H](CSSC[C@H](NC(=O)[C@@H](N)CCC(=O)O)C(=O)N[C@@H](CCCCN)C(=O)NCC(=O)N[C@@H](Cc4ccccc4)C(=O)NCC(=O)N[C@@H](CCCCN)C(=O)N[C@@H](CO)C(=O)N3)NC2=O)C(=O)N[C@@H](CC(N)=O)C(=O)N[C@@H](CO)C(=O)N[C@@H](CCCNC(=N)N)C(=O)N[C@@H](Cc2c[nH]cn2)C(=O)N[C@@H](CCCCN)C(=O)N[C@@H](Cc2c[nH]c3ccccc23)C(=O)N1)C(C)C)C(=O)O [D26H] (H-ECKGFGKSCVPGKNECCSGYACNSRHKWCKVLL-OH; disulfide 2-17, 9-22, 16-29) | 1500 ± 93 nM |  | 
3 | CC(C)C[C@H](NC(=O)[C@H](Cc1c[nH]c2ccccc12)NC(=O)[C@@H](NC(=O)[C@H](CCCCN)NC(=O)[C@@H]1CSSC[C@@H]2NC(=O)[C@H](CCC(=O)O)NC(=O)[C@H](CC(N)=O)NC(=O)[C@H](CCCCN)NC(=O)CNC(=O)[C@@H]3CCCN3C(=O)[C@H](C(C)C)NC(=O)[C@@H]3CSSC[C@H](NC(=O)[C@H](C)NC(=O)[C@H](Cc4ccc(O)cc4)NC(=O)CNC(=O)[C@H](CO)NC(=O)[C@H](CSSC[C@H](NC(=O)[C@@H](N)CCC(=O)O)C(=O)N[C@@H](CCCCN)C(=O)NCC(=O)N[C@@H](Cc4ccccc4)C(=O)NCC(=O)N[C@@H](CCCCN)C(=O)N[C@@H](CO)C(=O)N3)NC2=O)C(=O)N[C@@H](CC(N)=O)C(=O)N[C@@H](CO)C(=O)N[C@@H](CCCNC(=N)N)C(=O)N[C@@H](CC(=O)O)C(=O)N[C@@H](CCCCN)C(=O)N[C@@H](Cc2c[nH]c3ccccc23)C(=O)N1)C(C)C)C(=O)O [L32W] (H-ECKGFGKSCVPGKNECCSGYACNSRDKWCKVWL-OH; disulfide 2-17, 9-22, 16-29 (inferred); N-terminus and C-terminus assumed) |  | negligible activity | > 10000 nM
4 | CC(C)C[C@H](NC(=O)[C@H](CC(C)C)NC(=O)[C@@H](NC(=O)[C@H](CCCCN)NC(=O)[C@@H]1CSSC[C@@H]2NC(=O)[C@H](CCC(=O)O)NC(=O)[C@H](CC(N)=O)NC(=O)[C@H](CCCCN)NC(=O)CNC(=O)[C@@H]3CCCN3C(=O)[C@H](C(C)C)NC(=O)[C@@H]3CSSC[C@H](NC(=O)[C@H](C)NC(=O)[C@H](Cc4ccc(O)cc4)NC(=O)CNC(=O)[C@H](CO)NC(=O)[C@H](CSSC[C@H](NC(=O)[C@@H](N)CCC(=O)O)C(=O)N[C@@H](CCCCN)C(=O)NCC(=O)N[C@@H](Cc4ccccc4)C(=O)NCC(=O)N[C@@H](CCCCN)C(=O)N[C@@H](CO)C(=O)N3)NC2=O)C(=O)N[C@@H](CO)C(=O)N[C@@H](CO)C(=O)N[C@@H](CCCNC(=N)N)C(=O)N[C@@H](Cc2c[nH]cn2)C(=O)N[C@@H](CCCCN)C(=O)N[C@@H](Cc2c[nH]c3ccccc23)C(=O)N1)C(C)C)C(=O)O [N23S–D26H] (H-ECKGFGKSCVPGKNECCSGYACSSRHKWCKVLL-OH; disulfide 2-17, 9-22, 16-29) | 79 ± 4 nM |  | 
5 | CC(C)C[C@H](NC(=O)[C@H](Cc1c[nH]c2ccccc12)NC(=O)[C@@H](NC(=O)[C@H](CCCCN)NC(=O)[C@@H]1CSSC[C@@H]2NC(=O)[C@H](CCC(=O)O)NC(=O)[C@H](CC(N)=O)NC(=O)[C@H](CCCCN)NC(=O)CNC(=O)[C@@H]3CCCN3C(=O)[C@H](C(C)C)NC(=O)[C@@H]3CSSC[C@H](NC(=O)[C@H](C)NC(=O)[C@H](Cc4ccc(O)cc4)NC(=O)CNC(=O)[C@H](CO)NC(=O)[C@H](CSSC[C@H](NC(=O)CN)C(=O)N[C@@H](CCCCN)C(=O)NCC(=O)N[C@@H](Cc4ccccc4)C(=O)NCC(=O)N[C@@H](CCCCN)C(=O)N[C@@H](CO)C(=O)N3)NC2=O)C(=O)N[C@@H](CC(N)=O)C(=O)N[C@@H](CO)C(=O)N[C@@H](CCCCN)C(=O)N[C@@H](Cc2c[nH]cn2)C(=O)N[C@@H](CCCCN)C(=O)N[C@@H](Cc2c[nH]c3ccccc23)C(=O)N1)C(C)C)C(=O)O [E1G–R25K–D26H–L32W] (H-GCKGFGKSCVPGKNECCSGYACNSKHKWCKVWL-OH; disulfide 2-17, 9-22, 16-29) | 669 ± 70 nM |  | 
6 | CC(C)C[C@H](NC(=O)[C@H](CC(C)C)NC(=O)[C@@H](NC(=O)[C@H](CCCCN)NC(=O)[C@@H]1CSSC[C@@H]2NC(=O)[C@H](CCC(=O)O)NC(=O)[C@H](CC(N)=O)NC(=O)[C@H](CCCCN)NC(=O)CNC(=O)[C@@H]3CCCN3C(=O)[C@H](C(C)C)NC(=O)[C@@H]3CSSC[C@H](NC(=O)[C@H](C)NC(=O)[C@H](Cc4ccc(O)cc4)NC(=O)CNC(=O)[C@H](CO)NC(=O)[C@H](CSSC[C@H](NC(=O)CN)C(=O)N[C@@H](CCCCN)C(=O)NCC(=O)N[C@@H](Cc4ccccc4)C(=O)NCC(=O)N[C@@H](CCCCN)C(=O)N[C@@H](CO)C(=O)N3)NC2=O)C(=O)N[C@@H](CC(N)=O)C(=O)N[C@@H](CO)C(=O)N[C@@H](CCCNC(=N)N)C(=O)N[C@@H](CC(=O)O)C(=O)N[C@@H](CCCCN)C(=O)N[C@@H](Cc2c[nH]c3ccccc23)C(=O)N1)C(C)C)C(=O)O [E1G] (H-GCKGFGKSCVPGKNECCSGYACNSRDKWCKVLL-OH; disulfide 2-17, 9-22, 16-29 (inferred); N-terminus and C-terminus assumed) |  | negligible activity | > 10000 nM
7 | CC(C)C[C@H](NC(=O)[C@H](CC(C)C)NC(=O)[C@@H](NC(=O)[C@H](CCCCN)NC(=O)[C@@H]1CSSC[C@@H]2NC(=O)[C@H](CCC(=O)O)NC(=O)[C@H](CC(N)=O)NC(=O)[C@H](CCCCN)NC(=O)CNC(=O)[C@@H]3CCCN3C(=O)[C@H](C(C)C)NC(=O)[C@@H]3CSSC[C@H](NC(=O)[C@H](C)NC(=O)[C@H](Cc4ccc(O)cc4)NC(=O)CNC(=O)[C@H](CO)NC(=O)[C@H](CSSC[C@H](NC(=O)CN)C(=O)N[C@@H](CCCCN)C(=O)NCC(=O)N[C@@H](Cc4ccccc4)C(=O)NCC(=O)N[C@@H](CCCCN)C(=O)N[C@@H](CO)C(=O)N3)NC2=O)C(=O)N[C@@H](CC(N)=O)C(=O)N[C@@H](CO)C(=O)N[C@@H](CCCCN)C(=O)N[C@@H](Cc2c[nH]cn2)C(=O)N[C@@H](CCCCN)C(=O)N[C@@H](Cc2c[nH]c3ccccc23)C(=O)N1)C(C)C)C(=O)O [E1G–R25K–D26H] (H-GCKGFGKSCVPGKNECCSGYACNSKHKWCKVLL-OH; disulfide 2-17, 9-22, 16-29) | 766 ± 29 nM |  | 
